IC50 data for 27 compounds are collected here from patent US9828369B2, “Isoquinoline derivatives useful as inhibitors of diacylglyceride O-acyltransferase 2” (Merck Sharp & Dohme Corp., priority 2014, dated 2017).

The target of the test is hDGAT2 (Homo sapiens (Human), UniProt Q96PD7). Put plainly: DGAT2 enzymatic activity assay (triolein formation, LC/MS/MS). The note with it: read-out: IC50 values for inhibition of DGAT2; membrane prep of Sf-9 cells expressing hDGAT2; 25 μM diolein, 10 μM oleoyl-CoA; room temperature; triolein by LC/MS/MS.
hDGAT2, sequence (Q96PD7 whole entry): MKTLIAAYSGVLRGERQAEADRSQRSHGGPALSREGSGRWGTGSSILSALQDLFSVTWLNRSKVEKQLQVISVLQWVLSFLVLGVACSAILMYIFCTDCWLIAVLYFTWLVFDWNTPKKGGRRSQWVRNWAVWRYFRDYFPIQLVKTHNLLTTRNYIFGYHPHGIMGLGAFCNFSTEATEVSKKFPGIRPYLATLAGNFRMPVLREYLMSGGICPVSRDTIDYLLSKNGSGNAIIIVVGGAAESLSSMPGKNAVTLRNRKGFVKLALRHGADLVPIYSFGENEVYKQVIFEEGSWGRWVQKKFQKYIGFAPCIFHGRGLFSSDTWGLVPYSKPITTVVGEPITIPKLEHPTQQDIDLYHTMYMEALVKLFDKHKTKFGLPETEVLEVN
As to `COc1cccc(-c2ccc(CNC(=O)c3ccn(-c4ccccc4)n3)c3cnccc23)c1` [Example 74, N-((5-(3-methoxyphenyl)isoquinolin-8-yl)methyl)-1-phenyl-1H-pyrazole-3-carboxamide], the IC50 (commonly the concentration at which inhibition is half-maximal) came to 1270 nM.

`COc1cccc(-c2ccc(CNC(=O)c3cnc(-c4ccccc4)cn3)c3cnccc23)c1` [Example 75, N-((5-(3-methoxyphenyl)isoquinolin-8-yl)methyl)-5-phenylpyrazine-2-carboxamide]: the IC50 is 9050 nM.

Regarding `COc1cccc(-c2ccc(CNC(=O)c3ccc(-c4ccon4)cc3)c3cnccc23)c1` [Example 76, 4-(isoxazol-3-yl)-N-((5-(3-methoxyphenyl)isoquinolin-8-yl)methyl)benzamide], the 50% inhibitory concentration (IC50) stood at 4460 nM.

As for `COc1cccc(-c2ccc(CNC(=O)c3ccncc3-c3ccccc3)c3cnccc23)c1` [Example 77, N-((5-(3-methoxyphenyl)isoquinolin-8-yl)methyl)-3-phenylisonicotinamide], the IC50 came out at 1220 nM.

Regarding `COc1cccc(-c2ccc(CNC(=O)c3csc(-c4ccc(C(F)(F)F)cc4)n3)c3cnccc23)c1` [Example 78, N-((5-(3-methoxyphenyl)isoquinolin-8-yl)methyl)-2-(4-(trifluoromethyl)phenyl)thiazole-4-carboxamide], the IC50 is 1250 nM.

As for `COc1cccc(-c2ccc(CNC(=O)c3cnn(-c4ccccc4)c3)c3cnccc23)c1` [Example 79, N-((5-(3-methoxyphenyl)isoquinolin-8-yl)methyl)-1-phenyl-1H-pyrazole-4-carboxamide], the IC50 stood at 8490 nM.

Consider `COc1cccc(-c2ccc(CNC(=O)c3cc(-c4ccccc4)no3)c3cnccc23)c1` [Example 80, N-((5-(3-methoxyphenyl)isoquinolin-8-yl)methyl)-3-phenylisoxazole-5-carboxamide], for which the IC50 amounted to 2410 nM.

Turning to `COc1cccc(-c2ccc(CNC(=O)Cc3nnc(-c4ccccc4)[nH]3)c3cnccc23)c1` [Example 81, N-((5-(3-methoxyphenyl)isoquinolin-8-yl)methyl)-2-(5-phenyl-4H-1,2,4-triazol-3-yl)acetamide], the IC50 came out at 483 nM.

On to `COc1cccc(-c2ccc(CNC(=O)c3ccc(-c4ccccc4O)cc3)c3cnccc23)c1` [Example 82, 2′-hydroxy-N-((5-(3-methoxyphenyl)isoquinolin-8-yl)methyl)-[1,1′-biphenyl]-4-carboxamide], for which the IC50 worked out at 602 nM.

Regarding `COc1cccc(-c2ccc(CNC(=O)c3ccc(-c4ccccc4)o3)c3cnccc23)c1` [Example 83, N-((5-(3-methoxyphenyl)isoquinolin-8-yl)methyl)-5-phenylfuran-2-carboxamide], the IC50 is 1450 nM.

As for `COc1cccc(-c2ccc(CNC(=O)c3ccc(N4CCCCC4)cc3)c3cnccc23)c1` [Example 84, N-((5-(3-methoxyphenyl)isoquinolin-8-yl)methyl)-4-(piperidin-1-yl)benzamide], the IC50 stood at 988 nM.

On to `COc1cccc(-c2ccc(CNC(=O)c3cc(-c4ccccc4)nn3-c3ccccc3)c3cnccc23)c1` [Example 85, N-((5-(3-methoxyphenyl)isoquinolin-8-yl)methyl)-1,3-diphenyl-1H-pyrazole-5-carboxamide], for which the IC50 worked out at 3580 nM.

`COc1cccc(-c2ccc(CNC(=O)c3ccc(-c4ccc(F)cc4)cc3)c3cnccc23)c1` [Example 86, 4′-fluoro-N-((5-(3-methoxyphenyl)isoquinolin-8-yl)methyl)-[1,1′-biphenyl]-4-carboxamide]: the IC50 amounted to 1400 nM.

In the case of `COc1cccc(-c2ccc(CNC(=O)c3cccc(-c4cccc(F)c4)c3)c3cnccc23)c1` [Example 87, 3′-fluoro-N-((5-(3-methoxyphenyl)isoquinolin-8-yl)methyl)-[1,1′-biphenyl]-3-carboxamide], the IC50 was 1200 nM.

Take `COc1cccc(-c2ccc(CNC(=O)c3ccc(-c4cccc(F)c4)cc3)c3cnccc23)c1` [Example 88, 3′-fluoro-N-((5-(3-methoxyphenyl)isoquinolin-8-yl)methyl)-[1,1′-biphenyl]-4-carboxamide]: the IC50 came to 1560 nM.

In the case of `COc1cccc(-c2ccc(CNC(=O)Cc3nc(-c4ccccc4)cs3)c3cnccc23)c1` [Example 89, N-((5-(3-methoxyphenyl)isoquinolin-8-yl)methyl)-2-(4-phenylthiazol-2-yl)acetamide], the IC50 was found to be 2230 nM.

With `COc1cccc(-c2ccc(CNC(=O)c3ccccc3-n3cnnn3)c3cnccc23)c1` [Example 90, N-((5-(3-methoxyphenyl)isoquinolin-8-yl)methyl)-2-(1H-tetrazol-1-yl)benzamide], the IC50 came out at 902 nM.

For the compound `COc1cccc(-c2ccc(CNC(=O)c3cccc(-n4cnnn4)c3)c3cnccc23)c1` [Example 91, N-((5-(3-methoxyphenyl)isoquinolin-8-yl)methyl)-3-(1H-tetrazol-1-yl)benzamide], the IC50 is 889 nM.

With `COc1cccc(-c2ccc(CNC(=O)c3cccc4cnccc34)c3cnccc23)c1` [Example 92, N-((5-(3-methoxyphenyl)isoquinolin-8-yl)methyl)isoquinoline-5-carboxamide], the IC50 stood at 1760 nM.

In the case of `COc1cccc(-c2ccc(CNC(=O)CN3CCN(c4ccccc4)CC3)c3cnccc23)c1` [Example 93, N-((5-(3-methoxyphenyl)isoquinolin-8-yl)methyl)-2-(4-phenylpiperazin-1-yl)acetamide], the IC50 worked out at 6670 nM.

Take `COc1cccc(-c2ccc(CNC(=O)CCc3cnn(C)c3)c3cnccc23)c1` [Example 94, N-((5-(3-methoxyphenyl)isoquinolin-8-yl)methyl)-3-(1-methyl-1H-pyrazol-4-yl)propanamide]: the IC50 turned out to be 305 nM.

As to `COc1cccc(-c2ccc(CNC(=O)CC3(c4ccccc4)CCN(C(=O)OC(C)(C)C)C3)c3cnccc23)c1` (stereo not drawn) [Example 95, tert-butyl 3-(2-(((5-(3-methoxyphenyl)isoquinolin-8-yl)methyl)amino)-2-oxoethyl)-3-phenylpyrrolidine-1-carboxylate], the IC50 came out at 1310 nM.

On to `COc1cccc(-c2ccc(CNC(=O)C3CCC(c4ccccc4)=N3)c3cnccc23)c1` (stereo not drawn) [Example 96, N-((5-(3-methoxyphenyl)isoquinolin-8-yl)methyl)-5-phenyl-3,4-dihydro-2H-pyrrole-2-carboxamide], for which the IC50 stood at 8000 nM.

In the case of `COc1cccc(-c2ccc(CNC(=O)C3CC3c3ccc(Cl)cc3)c3cnccc23)c1` (stereo not drawn) [Example 97, 2-(4-chlorophenyl)-N-((5-(3 methoxyphenyl)isoquinolin-8-yl)methyl)cyclopropanecarboxamide], the IC50 was 597 nM.

Regarding `COc1cccc(-c2ccc(CNC(=O)C3CC34CCCC4)c3cnccc23)c1` (stereo not drawn) [Example 98, N-((5-(3-methoxyphenyl)isoquinolin-8-yl)methyl)spiro[2.4]heptane-1-carboxamide], the IC50 stood at 7400 nM.

As to `COc1cccc(-c2ccc(CNC(=O)C3CC34CCCCC4)c3cnccc23)c1` (stereo not drawn) [Example 100, N-((5-(3-methoxyphenyl)isoquinolin-8-yl)methyl)spiro[2.5]octane-1-carboxamide], the IC50 turned out to be 243 nM.

As for `COc1cccc(-c2ccc(CNC(=O)C3CC3c3ccccc3Br)c3cnccc23)c1` (stereo not drawn) [Example 101, 2-(2-bromophenyl)-N-((5-(3-methoxyphenyl)isoquinolin-8-yl)methyl)cyclopropanecarboxamide], the IC50 worked out at 915 nM.
